# Source: publication PMC5817852 (The Open Medicinal Chemistry Journal, 2018)
# Like-named read-outs stand apart in the source and are kept apart here.
# Columns and labels:
# [1] = test system: PC3 prostate cancer cell line; assay: qHTS cell viability screen (Cell Titer Glo), PC3; format: cell-based; settings: PC3 prostate, 72 hours, cell viability Cell Titer Glo, read-out: CC50 PC3
# [2] = test system: MDA-MB-231 breast cancer cell line; assay: qHTS cell viability screen (Cell Titer Glo), MDA-MB-231; format: cell-based
# [3] = test system: HT29 colorectal carcinoma; assay: qHTS cell viability screen (Cell Titer Glo), HT29; format: cell-based
# [4] = test system: REH cells (precursor B-cell ALL); assay: Additional cancer cell line panel, REH; format: cell-based, human; settings: Homo sapiens, REH; confidence intervals in parentheses; NA: not active; read-out: EC50 REH
# [5] = BJ cell cytotoxicity counter screen; settings: human, BJ cells (normal human foreskin fibroblast cell line)
# From the text: (§1) Most analogs in the presented series are lipophilic while also containing a positively charged amine. Lipophilic basic amines can accumulate in cell membranes if their lipophilic atom groups form favorable non-polar contacts with lipid chains while their charged amine is interacting with fatty acid head groups. Such association with lipids can lead to cytotoxicity through membrane destabilization. Therefore, we evaluated a number of representative compounds against BJ cells, a normal human foreskin fibroblast cell line, where cytotoxicity was determined at 10 µM drug concentration, as described previously.
# (§2) minimum locked at 0 and 100 respectively.
# (§3) children with ALL in relapse.
# (§4) foreskin fibroblast cell line (BJ).
# (§5) Table 2. […] SSA: Sulindac sulfide
# [6] = test system: BJ cells, normal human foreskin fibroblast cell line; assay: BJ cell cytotoxicity counter screen; settings: read-out: EC50 BJ (cytotoxicity); BJ normal human foreskin fibroblasts; confidence intervals in parentheses
# From the text: as §1, §2, §3, §4, §5
# [7] = MDA-MB-231 breast, 96 hours, cell viability Cell Titer Glo, read-out: CC50 MDA-MB-231
# [8] = HT29 colorectal carcinoma, 72 hours, cell viability Cell Titer Glo, read-out: CC50 HT29
# [9] = Homo sapiens, MDA-MB-231, 96 h, MDA-MB-231 breast, 96 hours, cell viability Cell Titer Glo, read-out: CC50 MDA-MB-231
# [10] = Homo sapiens, HT-29, 72 h, HT29 colorectal carcinoma, 72 hours, cell viability Cell Titer Glo, read-out: CC50 HT29
melting point,SMILES,CC50 [1],"CC50 [2, 7]","CC50 [3, 8]",CC50 ([1]; 72 h),"CC50 [2, 9]","CC50 [3, 10]",other results
,COc1cc(/C=C2/C(C)=C(CNS(=O)(=O)c3cccc4ccccc34)c3cc(F)ccc32)cc(OC)c1OC [Compound 45],> 50 µM,> 50 µM,> 50 µM,,,,
,COc1cc(/C=C2/C(C)=C(CNC(=O)c3ccco3)c3cc(F)ccc32)cc(OC)c1OC [Compound 27],> 50 µM,> 50 µM,> 50 µM,,,,
,CC1=C(CCNCc2ccccc2)c2cc(F)ccc2/C1=C\c1ccc([S+](C)[O-])cc1 (stereo not shown) [Compound 11],,,,41.5 ± 5 µM,48.6 ± 7.85 µM,15.1 ± 1.42 µM,
,CSc1ccc(/C=C2/C(C)=C(CNC(=O)[C@@H]3CCCN3)c3cc(F)ccc32)cc1 [Compound 25],,,,6.66 ± 0.42 µM,4.35 ± 0.19 µM,3.15 ± 0.17 µM,EC50 [4]: 150 µM; EC50 [5]: > 22.7 µM
168 to 170 °C,CSc1ccc(/C=C2/C(C)=C(CCNC(=O)c3ccco3)c3cc(F)ccc32)cc1 [Compound 14],,,,8.92 ± 0.83 µM,16.8 ± 3.2 µM,9.24 ± 1.18 µM,EC50 [5]: > 7.57 µM
,CSc1ccc(/C=C2/C(C)=C(CNC(=O)CN)c3cc(F)ccc32)cc1 [Compound 21],7.27 ± 0.31 µM,7.3 ± 0.62 µM,5.49 ± 0.21 µM,,,,EC50 [6]: > 22.7 µM
141 to 143 °C,CSc1ccc(/C=C2/C(C)=C(CNS(=O)(=O)c3ccccc3)c3cc(F)ccc32)cc1 [Compound 36],,,,39.6 ± 14.8 µM,17.7 ± 2.1 µM,9.94 ± 0.83 µM,
,CSc1ccc(/C=C2/C(C)=C(CCNCc3ccccc3)c3cc(F)ccc32)cc1 [Compound 7],> 50 µM,46.5 ± 1.92 µM,21.8 ± 2.29 µM,,,,EC50 [6]: > 7.57 µM
,CSc1ccc(/C=C2/C(C)=C(CNC(=O)c3ccco3)c3cc(F)ccc32)cc1 [Compound 19],39.8 ± 6.81 µM,41.2 ± 7.6 µM,33.2 ± 3.43 µM,,,,
94 to 95 °C,CSc1ccc(/C=C2/C(C)=C(CNS(=O)(=O)c3cccc4ccccc34)c3cc(F)ccc32)cc1 [Compound 38],,,,> 50 µM,38.9 ± 10.3 µM,17 ± 3.73 µM,
131 to 133 °C,CCS(=O)(=O)NCC1=C(C)/C(=C/c2ccc(SC)cc2)c2ccc(F)cc21 [Compound 35],,,,22.6 ± 3.25 µM,11.9 ± 2.61 µM,8.33 ± 1.64 µM,
,COc1ccc(CN(CC2=C(C)/C(=C/c3cc(OC)c(OC)c(OC)c3)c3ccc(F)cc32)Cc2ccc(OC)cc2)cc1 [Compound 59],> 50 µM,,,,,,CC50 [2]: > 50 µM; CC50 [3]: > 50 µM
95 to 97 °C,COc1cc(/C=C2/C(C)=C(CN(Cc3ccc4ccccc4c3)Cc3ccc4ccccc4c3)c3cc(F)ccc32)cc(OC)c1OC [Compound 58],,,,> 50 µM,> 50 µM,> 50 µM,
,CSc1ccc(/C=C2/C(C)=C(CN(CCc3ccccc3)CCc3ccccc3)c3cc(F)ccc32)cc1 [Compound 53],> 50 µM,,,,,,CC50 [2]: > 50 µM; CC50 [3]: > 50 µM
108 to 110 °C,COc1cc(/C=C2/C(C)=C(CN)c3cc(F)ccc32)cc(OC)c1OC [Compound 17],,,,29.7 ± 4.49 µM,15.3 ± 4.44 µM,14.6 ± 2.42 µM,
152 to 154 °C,CSc1ccc(/C=C2/C(C)=C(CNS(=O)(=O)c3ccc4ccccc4c3)c3cc(F)ccc32)cc1 [Compound 39],,,,> 50 µM,12.9 ± 2.39 µM,25.6 ± 5.91 µM,
146 to 148 °C,CSc1ccc(/C=C2/C(C)=C(CNC(=O)[C@@H](N)CO)c3cc(F)ccc32)cc1 [Compound 22],,,,6.03 ± 0.41 µM,7.43 ± 0.87 µM,5.98 ± 0.24 µM,EC50 [5]: > 22.7 µM
,CSc1ccc(/C=C2/C(C)=C(CCNCCN3CCCCC3)c3cc(F)ccc32)cc1 [Compound 9],4.78 ± 0.2 µM,3.73 ± 0.21 µM,1.81 ± 0.06 µM,,,,EC50 [6]: > 7.57 µM
,COc1cc(/C=C2/C(C)=C(CNS(=O)(=O)c3cccc4c(N(C)C)cccc34)c3cc(F)ccc32)cc(OC)c1OC [Compound 47],> 50 µM,> 50 µM,> 50 µM,,,,
118 to 120 °C,COc1cc(/C=C2/C(C)=C(CNS(=O)(=O)c3ccc4ccccc4c3)c3cc(F)ccc32)cc(OC)c1OC [Compound 46],,,,> 50 µM,> 50 µM,> 50 µM,
,CSc1ccc(/C=C2/C(C)=C(CN(Cc3ccc(F)cc3)Cc3ccc(F)cc3)c3cc(F)ccc32)cc1 [Compound 50],> 50 µM,,,,,,CC50 [2]: > 50 µM; CC50 [3]: > 50 µM
